Laboratory results: paper PMC9112662, “Scaffold stability and P14′ residue steric hindrance in the differential inhibition of FXIIa by Aedes aegypti trypsin inhibitor versus Infestin-4” (Bioscience Reports, 2022)
Positions of bridges follow the written chain, without caps; N, C: chain ends. No end group written: not given here.

Experiments:
[1] = target: human Factor XIIa (human) (UniProt P00748)
FXIIa [2] = target: T1, FXIIa (Homo sapiens, UniProt P00748); conditions: n = 3; read-out: IC50 values toward FXIIa
T1 construct: gene F12; human FXIIa (Merck)
T1 sequence (P00748 373-615): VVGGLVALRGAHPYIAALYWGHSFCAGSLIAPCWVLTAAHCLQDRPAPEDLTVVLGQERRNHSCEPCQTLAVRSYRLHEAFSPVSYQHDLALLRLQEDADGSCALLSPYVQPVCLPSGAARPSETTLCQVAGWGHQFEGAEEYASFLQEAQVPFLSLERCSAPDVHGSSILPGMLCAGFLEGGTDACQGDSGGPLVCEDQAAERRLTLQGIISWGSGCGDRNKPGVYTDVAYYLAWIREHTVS
Protocol: For IC50 determination, FXIIa was pre-incubated with different concentrations of inhibitors. The generation of p-nitroaniline (pNA) was determined by measuring the absorbance at 405 nm using a absorbance plate reader (Tecan; Männedorf, Switzerland). The reaction mixture consisted of 40 µl FXIIa (10 nM), 40 µl inhibitor, and 40 µl chromogenic substrate (1 mM). All reaction components were prepared in 50 mM Tris pH 7.4 containing 100 mM NaCl.
For IC50 calculations, log[inhibitor concentration] vs. percentage normalized inhibition was plotted using a non-linear regression curve function, created with Kaleidagraph 4.5.2 (Synergy Software; Reading, PA). All data represent the mean ± SD for triplicate values.

plasmin = conditions: cited from earlier work
thrombin = conditions: cited from earlier work
Text: The Kazal-type inhibitor, Aedes aegypti trypsin inhibitor (AaTI), is a novel trypsin Kazal-type inhibitor from Aedes aegypti, the primary vector of mosquito-borne diseases like dengue. […] AaTI has a similar structure to that of Inf4 [19], and with only a 3-residue difference in the reactive-site loop sequence. The reactive-site loop sequence makes most-if not all-of the direct contacts with the protease and is thought to be the sole factor that govern the inhibitor specificity.

FXIIa [3] = conditions: cited from earlier work

Row | Substance | IC50 of inhibition of FXIIa activity, chromogenic assay (substrate S-2302) [1] [nM] | IC50 (FXIIa [2]) [nM] | also measured
1 | AaTI with C1C3 and C3C4 regions of Inf4 (His-tagged) [AaTI_Inf4 C1C3+C3C4] |  | 147 ± 42.9 | 
2 | Aedes aegypti trypsin inhibitor, RSDAERGVCACPRIYMPVCGSNLKTYNNDCLLRCEINSDLGRANNLRKIADQACDNLTDNVNDFIPQEY (His-tagged) [Wild-type AaTI] |  | > 10000 | Ki (plasmin): 3.8 nM; Ki (thrombin): 320 nM
3 | KEVRNPCACFRNYVPVCGSDGKTYGNPCMLNCAAQTKVPGLKLVHEGRCQRSNVEQF (disulfide 7-32, 9-28, 17-49) [Wild-type Inf4] |  |  | Ki (FXIIa [3]): 0.128 nM; Ki (plasmin): 2.1 nM
4 | AaTI with C1C3 and C5C6 regions of Inf4 (His-tagged) [AaTI_Inf4 C1C3+C5C6] |  | 113 ± 16.7 | 
5 | AaTI with C1C3 region of Inf4 and F10A (His-tagged) [AaTI_Inf4 C1C3+F10A] |  | 610 ± 206 | 
6 | Wild-type Infestin-4 (domain or fragment) | 3.1 |  | 
7 | Inf4_N12I (domain or fragment) | 8.4 |  | 

More lines, main results first:

Row | IC50 of inhibition of FXIIa activity, chromogenic assay (substrate S-2302) [1] [nM] | IC50 (FXIIa [2]) [nM] | Substance | also measured
8 | 9.9 |  | Inf4_V14M (domain or fragment) | 
9 |  | 11.4 ± 3.1 | AaTI with C1C3 and C5C6 regions of Inf4 and N27G (His-tagged) [AaTI_Inf4 C1C3+C5C6+N27G] | 
10 |  | 4680 ± 3830 | AaTI with C1C3 region of Inf4 (His-tagged) [AaTI_Inf4 C1C3] | 
11 |  | 58 ± 14.8 | AaTI with C1C3 region of Inf4 and N27G (His-tagged) [AaTI_Inf4 C1C3+N27G] | 
12 |  | 6.2 ± 0.8 | Inf4 with C6 region replaced with that of AaTI (His-tagged) [Inf4_AaTI C6] | 
13 | 11.6 |  | Inf4_F10P (domain or fragment) | 
